For data set [1], the system named is BxPC3. The data set is described as follows: Cell based screen for inhibitors of Raf and/or Mek kinase (SRB), BxPC3. The following applies: Homo sapiens, BXPC-3, BxPC3 cells, (a)/(b) = average of two/three runs. The method, then:
[The procedure below names another cell line; the source lists this cell line under the same test.] (§1) Cell Based Screen for Inhibitors of Raf and/or Mek Kinase. Materials
(§2) Cells are plated at 2000 cells per well for cell line LoVo and 1500 cells for cell line CaCo-2 in 96 well plates. Cells are plated in media (200 μl) and allowed to adhere overnight at 37° C. At 24 hours post plating, compounds are added directly at a volume of 0.5 μl. For the qualitative screen (compounds screened at 25 μM) compound is added directly to cells. For the quantitative screen, compound is first diluted in DMSO to generate concentrations of compound or reference standard of: 1, 5, 10 and 25 μM. It is advisable to make the dilutions in an identical 96 well plate so that compounds can be added using a multichannel micropipettor set at 0.5 μl. The cells are then incubated for four days after which the media is removed using a 12 well manifold by first tipping the plate forward at a 45 degree angle and then inserting the manifold in an upright orientation to prevent the tips of the manifold from disturbing cells at the bottom of the plate. 200 μl of normal saline is then added to each well using an 8 well multichannel pipettor, followed by the careful addition of 50 μl of 50% TCA. The plates are then incubated for 2 hours at 4° C., after which the supernatant is removed using the same technique as above and the plated cells are washed twice with 200 μl water. The plates are then air dried and 50 μl of SRB stock solution is carefully added so that the entire bottom of each well is covered. This again can be done using an 8 well multichannel pipettor. The SRB is incubated with fixed cells for 15 minutes at room temperature after which the SRB is removed with the manifold as described above and the plates washed twice with 350 μl of 1% acetic acid per well each time. The plates are then air dried after which the bound SRB is released from protein by the addition of 200 μl of Tris base. Resolubilizing the SRB is aided by placing the plates on a rotator for 15-30 minutes. The absorbance of each well is determined at 550 or 562 nm using a microtiter plate reader.
(§3) Each compound or dilution thereof is performed in triplicate. Outliers are identified by visual inspection of the data. Each plate should have a “0” control (vehicle only).
(§4) Quantitative Assay: A standard curve is constructed by plotting the concentration of compound against the average absorbance calculated at that concentration. A curve is plotted and the concentration at which the curve passes through the 50% the absorbance mark seen in the “0” control well is the IC50 calculated for that compound. Multiple entries for a given compound indicate that it is tested multiple times.

Data set [2] has as its target T1, Raf and/or Mek kinase (human c-Raf, GST-MEK1) (Homo sapiens, UniProt P04049+Q02750).
T1 construct: Sf9 insect cell lysate containing full length 6his-tagged recombinant human c-Raf; 6His; host or cells: Sf9 insect cells (c-Raf, used as lysate); E. coli (MEK1-GST, GST-MAPK)
As to the kind of experiment: Raf/Mek kinase cascade assay. The data set is classed as biochemical. To be noted: c-Raf dependent activation of GST-MEK and GST-MAPK, phospho-MAPK ELISA; (a)/(b)/(c) = average of two/three/four runs. The procedure:
Raf/Mek Kinase Cascade Assay Procedure
(Specific Activity: ˜200 U/ml). Human Non-active Mek-1-GST and human GST-MAP kinase (recombinant proteins produced in E. coli).
Stock Solutions Raf/Mek Cascade Assay:
• 1. Assay Dilution Buffer (ADB): 20 mM MOPS, pH 7.2, 25 mM β-glycerol phosphate, 5 mM EGTA, 1 mM sodium orthovanadate, 1 mM dithiothreitol; • 2. Magnesium/ATP Cocktail: 500 μM cold ATP and 75 mM magnesium chloride in ADB; • 3. Active Kinase: Human Active c-Raf: Use at 0.4 U per assay point; • 4. Non-active GST-MEK1: Use at 0.1 μg per assay point; and • 5. Non-active GST-p42 MAP Kinase: Use at 1.0 μg per assay point. Stock Solutions ELISA: • 1. TBST-Tris (50 mM, pH 7.5), NaCl (150 mM), Tween-20 (0.05%); • 2. Superblock (Pierce); • 3. Anti-GST Ab (Pharmacia); • 4. Anti-Phospho MAPK (Sigma); and • 5. Anti-Mouse Ab/Europium conjugate (Wallac). Assay Procedure: First Stage: c-Raf Dependent Activation of GST-MEK and GST-MAPK • 1. Add […] of ADB per assay (i.e. per well of a 96 well plate); • 2. Add 10 ml of 0.5 mM cold ATP and 75 mM magnesium chloride in ADB; • 3. Add 2 ml of c-Raf (0.4 U/assay), in conjunction with 1.6 ml non-active MEK1 (0.4 […]/assay); • 4. Add 4 ml of non-active GST-p42 MAP Kinase (1.0 mg/assay); • 5. Incubate for 60 minutes at 30° C. in a shaking incubator; • 6. Transfer this mixture to an anti-GST Ab coated 96 well plate (Nunc Immunosorb plates coated o/n with a-GST, then blocked with Pierce Superblock); • 7. Incubate for 60 minutes at 30° C. in a shaking incubator; • 8. Wash 3× with TBST, add Anti-Phospho MAPK (Sigma) (1:3000); • 9. Incubate for 60 minutes at 30° C. in a shaking incubator; • 10. Wash 3× with TBST, add Anti-Mouse Ab/Europium conjugate (Wallac) (1:500); • 11. Incubate for 60 minutes at 30° C. in a shaking incubator; • 12. Wash 3× with TBST, Read plates in Wallac Victor model Plate Reader; and • 13. Collect data analyze in Excel for single point and IC50 determinations.
Single point assay—% inhibition at […] (% Inhibition=1−cpd·treated sample/untreated control). IC50 determinations—done on compounds from single point assays with >80% inhibition. Typically, the Raf/Mek assay is run at compound concentrations from 10 μM to 1 nM in half log dilutions. (% inhibition is determined for each compound concentration). The results obtained measure Raf and/or Mek kinase inhibition, and for representative compounds of this invention are listed in Table 1.
In general terms: In an ELISA, binding on a coated surface is turned into a signal by an enzyme label.

Data set [3] has as its system LoVo. As to the kind of experiment: Cell based screen for inhibitors of Raf and/or Mek kinase (SRB), LoVo. On the set-up: species or system human. The following applies: Homo sapiens, 96 h, LoVo cells, four days incubation, (a)/(b)/(c) = average of two/three/five runs. The method, then:
as §1
Cell Lines: Human adenocarcinoma cell line LoVo, known to be growth inhibited by low nM concentrations of a reference standard inhibitor of Ras and human adenocarcinoma cell line CaCo-2, known to be growth resistant to the same reference compound.
Cell Media: RPMI 1640 with 10% Fetal Bovine Serum supplemented with L-glutamine and Penicillin/Streptomycin.
as §2, §3, §4

The target in data set [4] is T2, p60c-src (Homo sapiens, UniProt P12931).
T2 construct: purchased Upstate Biotechnologies
As to the kind of experiment: Src kinase test procedure (ELISA). It counts as biochemical. The following applies: cdc2 substrate peptide, (a) = average of two runs. The procedure:
Src Kinase Test Procedure
Inhibitors of p60^c-src (partially purified preparation purchased from Upstate Biotechnologies) tyrosine kinase activity are analyzed in an Elisa format. The Boehringer Mannheim Tyrosine Kinase Assay Kit (Catalog number 1-534505) with a cdc2 substrate peptide containing Tyr15 is used for the assay. HRP-conjugated anti-phosphotyrosine is used to detect phosphorylated peptide via a color reaction. Conditions recommended by the manufacturer are employed.
Reaction conditions: Five microliter aliquots of each compound prepared fresh at the time of the assay are added as a solution in 10 mM HEPES pH 7.5, 10% DMSO to the reaction well. Thirty-five microliters of reaction mix containing Src, buffer and peptide/bovine serum albumin mix are added to the compound wells and incubated at 30° C. for 10 minutes (reaction buffer: 50 mM Tris HCl pH 7.5, 10 mM MgCl2, 0.1 mM EGTA, 0.5 mM Na3VO4). The reaction is started by addition of 10 microliters of ATP, incubated at 30° C. for 1 hour, and stopped by addition of 20 microliters of 0.5M EDTA. The reaction mixture with the phosphorylated peptide is then transferred to a streptavidin-coated microtiter plate (provided in the kit) and allowed to bind for 20 minutes. Unbound peptide and reaction mixture is decanted and the plate is washed with PBS six times. Horseradish peroxidase-conjugated phosphotyrosine antibody supplied in the kit is incubated with the plate for one hour, then decanted. The plate is again ished with PBS six times. Substrate (provided in the kit) is added and absorbance at 405 nm is measured.
Activity is determined as % inhibition as calculated by the formula: (1−Abs/Abs(max))×100=% inhibition. Where multiple concentrations of the test agent are used, an IC50 (concentration which gives 50% inhibition) could be determined.

The source of these data is US7767671B2, “3-Quinolinecarbonitrile protein kinase inhibitors” (Wyeth, priority 2004, dated 2010).

By melting point is commonly meant the temperature of the solid-liquid transition. In general, IC50 refers to the concentration needed to halve the response being measured.

T1 sequence (P04049 whole entry): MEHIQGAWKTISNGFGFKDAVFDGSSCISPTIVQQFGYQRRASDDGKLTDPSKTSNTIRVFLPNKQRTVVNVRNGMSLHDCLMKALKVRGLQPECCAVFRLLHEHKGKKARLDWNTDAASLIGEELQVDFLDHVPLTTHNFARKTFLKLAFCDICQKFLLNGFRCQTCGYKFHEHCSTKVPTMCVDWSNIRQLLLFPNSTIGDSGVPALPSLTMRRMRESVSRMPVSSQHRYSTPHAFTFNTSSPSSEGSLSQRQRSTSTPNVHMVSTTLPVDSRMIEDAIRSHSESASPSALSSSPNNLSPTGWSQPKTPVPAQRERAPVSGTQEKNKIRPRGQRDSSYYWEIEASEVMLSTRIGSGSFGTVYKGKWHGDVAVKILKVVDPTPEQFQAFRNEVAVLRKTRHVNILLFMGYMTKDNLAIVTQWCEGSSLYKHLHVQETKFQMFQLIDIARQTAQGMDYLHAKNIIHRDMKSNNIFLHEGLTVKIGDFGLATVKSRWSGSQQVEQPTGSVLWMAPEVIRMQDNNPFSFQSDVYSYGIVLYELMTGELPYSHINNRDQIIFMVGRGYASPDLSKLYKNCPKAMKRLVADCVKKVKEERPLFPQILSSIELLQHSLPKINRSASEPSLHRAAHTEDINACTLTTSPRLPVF
T1 sequence (Q02750 whole entry): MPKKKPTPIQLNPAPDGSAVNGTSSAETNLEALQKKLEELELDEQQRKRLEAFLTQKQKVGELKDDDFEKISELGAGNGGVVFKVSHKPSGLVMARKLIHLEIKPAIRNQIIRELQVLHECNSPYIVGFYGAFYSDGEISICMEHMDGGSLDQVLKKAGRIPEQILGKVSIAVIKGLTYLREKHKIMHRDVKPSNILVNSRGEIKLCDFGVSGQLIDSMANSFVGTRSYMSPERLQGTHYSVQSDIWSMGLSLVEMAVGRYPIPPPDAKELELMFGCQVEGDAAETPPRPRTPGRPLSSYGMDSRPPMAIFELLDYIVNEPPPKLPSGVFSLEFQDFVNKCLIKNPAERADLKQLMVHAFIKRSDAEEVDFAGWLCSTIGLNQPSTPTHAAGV
T2 sequence (P12931 whole entry): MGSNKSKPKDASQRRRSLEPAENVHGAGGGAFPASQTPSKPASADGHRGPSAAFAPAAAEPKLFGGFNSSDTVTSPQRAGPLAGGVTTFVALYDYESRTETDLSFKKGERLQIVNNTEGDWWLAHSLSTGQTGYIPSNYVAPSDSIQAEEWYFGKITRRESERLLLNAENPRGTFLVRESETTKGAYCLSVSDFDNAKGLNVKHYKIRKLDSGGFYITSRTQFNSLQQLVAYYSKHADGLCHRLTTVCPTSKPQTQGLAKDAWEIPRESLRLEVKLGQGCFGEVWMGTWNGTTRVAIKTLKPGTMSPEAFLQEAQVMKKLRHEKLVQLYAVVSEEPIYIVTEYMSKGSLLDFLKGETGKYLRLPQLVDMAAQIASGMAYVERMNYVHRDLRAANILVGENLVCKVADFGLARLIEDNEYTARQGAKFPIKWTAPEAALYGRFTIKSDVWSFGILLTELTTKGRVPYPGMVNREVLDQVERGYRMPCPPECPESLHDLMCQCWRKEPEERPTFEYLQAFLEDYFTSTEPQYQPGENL

Take `COc1cc2c(Nc3ccc(Sc4ccccn4)cc3)c(C#N)cnc2cc1N1CCC(N2CCCC2)CC1` [Example 13, 6-Methoxy-4-[4-(pyridin-2-ylsulfanyl)phenylamino]-7-(4-pyrrolidin-1-yl-piperidin-1-yl)-quinoline-3-carbonitrile]: the melting point was 182 to 184 °C. Besides, 0.6 µM corresponded to half-maximal inhibition in data set [1] (IC50). For the same compound, in data set [2], the IC50 was 1.43 µM. In data set [3], this compound gave an IC50 of 0.47 µM.

Turning to `CC(=O)N(C(C)=O)c1cc2c(Nc3ccc(Sc4nccn4C)c(Cl)c3)c(C#N)cnc2cc1N1CCC(N2CCCC2)CC1` [Example 28, N-Acetyl-N-[4-[3-chloro-4-(1-methyl-1H-imidazole-2-ylsulfanyl)-phenylamino]-3-cyano-7-(4-pyrrolidin-1-yl-piperidin-1-yl)quinolin-6-yl]acetamide], the melting point was 245 to 247 °C. The IC50 in data set [1] turned out to be 0.008 µM. In data set [2], this compound came in with an IC50 of 2.39 µM. Moreover, half-maximal inhibition in data set [3] (IC50) required 0.014 µM.

Regarding `CNc1cc2c(Nc3ccc(Sc4nccn4C)c(Cl)c3)c(C#N)cnc2cc1N1CCC(N2CCCC2)CC1` [Example 30, 4-({3-Chloro-4-[(1-methyl-1H-imidazole-2-yl)thio]phenyl}amino)-6-(methylamino)-7-(4-pyrrolidin-1-ylpiperidin-1-yl)quinoline-3-carbonitrile], the melting point was 242 to 250 °C. Besides, half-maximal inhibition in data set [1] (IC50) required 0.03 µM. This compound had an IC50 in data set [2] of 0.22 µM. For the same compound, the half-inhibitory concentration (IC50) in data set [3] worked out at 0.014 µM.

In turn, `COc1cc2c(Nc3ccc(Sc4nccn4C)c(Cl)c3)c(C#N)cnc2cc1N1CCC(N2CCCC2)CC1` [Example 11, 4-({3-chloro-4-[(1-methyl-1H-imidazole-2-yl)thio]phenyl}amino)-6-methoxy-7-(4-pyrrolidin-1-ylpiperidin-1-yl)quinoline-3-carbonitrile] had a melting point of 225 to 229 °C. Also, the IC50 in data set [1] turned out to be 0.042 µM. For the same compound, in data set [2], the IC50 amounted to 0.114 µM. Further, in data set [3], the IC50 is 0.029 µM. Moreover, the IC50 in data set [4] worked out at 0.281 µM.

Take `COc1cc2c(Nc3ccc(Sc4ccccn4)c(Cl)c3)c(C#N)cnc2cc1N1CCC(N2CCCC2)CC1` [Example 14, 4-[3-Chloro-4-(pyridin-2-ylsulfanyl)-phenylamino]-6-methoxy-7-(4-pyrrolidin-1-yl-piperidin-1-yl)-quinoline-3-carbonitrile]: the melting point is 203 to 205 °C. The compound also registered an IC50 in data set [1] of 0.3 µM. For the same compound, the concentration for half-maximal inhibition (IC50) in data set [2] is 0.795 µM. In data set [3], the IC50 was found to be 0.37 µM.

`COc1cc2c(Nc3ccc(Sc4nccn4C)c(Cl)c3)c(C#N)cnc2cc1OCCCN1CCC(N2CCCC2)CC1` [Example 33, 4-{3-Chloro-4-[(1-methyl-1H-imidazole-2-yl)sulfanyl]anilino}-6-methoxy-7-{3-[4-(1-pyrrolidinyl)-1-piperidinyl]propoxy}-3-quinolinecarbonitrile] returned a melting point of 196 to 198 °C. Further, it took 0.049 µM to reach half-maximal inhibition in data set [1] (IC50). This compound also gave a half-maximal inhibitory concentration (IC50) in data set [2] of 0.003 µM. Besides, the IC50 in data set [3] turned out to be 0.047 µM.

`CCOc1cc2c(Nc3ccc(Sc4nccn4C)c(Cl)c3)c(C#N)cnc2cc1N1CCC(N2CCCC2)CC1` [Example 18, 4-({3-chloro-4-[(1-methyl-1H-imidazole-2-yl)thio]phenyl}amino)-6-ethoxy-7-(4-pyrrolidin-1-ylpiperidin-1-yl)quinoline-3-carbonitrile] registered a melting point of 203 to 207 °C. The IC50 in data set [1] worked out at 0.03 µM. In addition, in data set [2], the 50% inhibitory concentration (IC50) turned out to be 0.075 µM. This compound also returned an IC50 in data set [3] of 0.027 µM.

For `COc1cc2c(Nc3ccc(Sc4nccn4C)c(Cl)c3)c(C#N)cnc2cc1N1CCC(N2CCN(C)CC2)CC1` [Example 20, 4-({3-Chloro-4-[(1-methyl-1H-imidazole-2-yl)thio]phenyl}amino)-6-methoxy-7-[4-(4-methylpiperazin-1-yl)piperidin-1-yl]quinoline-3-carbonitrile], the melting point was 235 to 237 °C. Moreover, 0.038 µM corresponded to half-maximal inhibition in data set [1] (IC50). The compound further showed a half-maximal inhibitory concentration (IC50) in data set [2] of 0.293 µM. Moreover, the IC50 in data set [3] was 0.022 µM.
